Laboratory results taken from patent US7687643B2, “Process for preparing 3,3-dimethylindolines” (Amgen Inc., priority 2001, dated 2010).

Each compound was assayed on Human Umbilical Vein Endothelial cells (VEGF-stimulated) (assay: HUVEC proliferation assay, VEGF-stimulated). Settings: VEGF 50 ng/mL, 72 h, CyQuant, read-out: inhibited VEGF-stimulated HUVEC proliferation at a level.
Format: cell-based
Experimental: Human Umbilical Vein Endothelial cells are purchased from Clonetics, Inc., as cryopreserved cells harvested from a pool of donors. These cells, at passage 1, are thawed and expanded in EBM-2 complete medium, until passage 2 or 3. The cells are trypsinized, washed in DMEM+10% FBS+antibiotics, and spun at 1000 rpm for 10 min. Prior to centrifugation of the cells, a small amount is collected for a cell count. After centrifugation, the medium is discarded, and the cells are resuspended in the appropriate volume of DMEM+10% FBS+antibiotics to achieve a concentration of 3×10^5 cells/mL. Another cell count is performed to confirm the cell concentration. The cells are diluted to 3×10^4 cells/mL in DMEM+10% FBS+antibiotics, and 100 μL of cells are added to a 96-well plate. The cells are incubated at 37° C. for 22 h.
Prior to the completion of the incubation period, compound dilutions are prepared. Five-point, five-fold serial dilutions are prepared in DMSO, at concentrations 400-fold greater than the final concentrations desired. 2.5 μL of each compound dilution are diluted further in a total of 1 mL DMEM+10% FBS+antibiotics (400× dilution). Medium containing 0.25% DMSO is also prepared for the 0 μM compound sample. At the 22-hour timepoint, the medium is removed from the cells, and 100 μL of each compound dilution is added. The cells are incubated at 37° C. for 2-3 h.
During the compound pre-incubation period, the growth factors are diluted to the appropriate concentrations. Solutions of DMEM+10% FBS+antibiotics, containing either VEGF or bFGF at the following concentrations: 50, 10, 2, 0.4, 0.08, and 0 ng/mL are prepared. For the compound-treated cells, solutions of VEGF at 550 ng/mL or bFGF at 220 ng/mL for 50 ng/mL or 20 ng/mL final concentrations, respectively, are prepared since 10 μL of each will be added to the cells (110 μL final volume). At the appropriate time after adding the compounds, the growth factors are added. VEGF is added to one set of plates, while bFGF is added to another set of plates. For the growth factor control curves, the media on wells B4-G6 of plates 1 and 2 are replaced with media containing VEGF or bFGF at the varying concentrations (50-0 ng/mL). The cells are incubated at 37° C. for an additional 72 h.
At the completion of the 72 h incubation period, the medium is removed, and the cells are washed twice with PBS. After the second wash with PBS, the plates are tapped gently to remove excess PBS, and the cells are placed at −70° C. for at least 30 min. The cells are thawed and analyzed using the CyQuant fluorescent dye (Molecular Probes C-7026), following the manufacturer's recommendations. The plates are read on a Victor/Wallac 1420 workstation at 485 nm/530 nm (excitation/emission). Raw data are collected and analyzed using a 4-parameter fit equation in XLFit. IC50 values are then determined.
For `O=C(Nc1cccc(C(OC[C@@H]2CCCN2)(C(F)(F)F)C(F)(F)F)c1)c1cccnc1NCc1ccncc1` [Example 1138, 2-[(Pyridin-4-ylmethyl)-amino]-N-{3-[2,2,2-trifluoro-1-(pyrrolidin-2-ylmethoxy)-1-trifluoromethyl-ethyl]-phenyl}-nicotinamide], the IC50 was < 50 nM. In the case of `CC(C)c1ccc(NC(=O)c2cc(F)cnc2NCc2ccncc2)cc1` [Example 67, {5-Fluoro-2-[(4-pyridylmethyl)amino](3-pyridyl)}-N-[4-(isopropyl)phenyl]carboxamide], the IC50 is reported as < 50 nM. For `CC1(C)CN(S(C)(=O)=O)c2cc(NC(=O)c3cccnc3NCc3ccncc3)ccc21` [Example 1068, N-(3,3-dimethyl-1-(methylsulfonyl)-2,3-dihydro-1H-indol-6-yl)-2-((4-pyridinylmethyl)amino)-3-pyridinecarboxamide], the IC50 was < 50 nM. `CC1(C)CN(Cc2cc[n+]([O-])cc2)c2cc(NC(=O)c3cccnc3NCc3ccncc3)ccc21` [Example 1099, N-[3,3-Dimethyl-1-(1-oxy-pyridin-4-ylmethyl)-2,3-dihydro-1H-indol-6-yl]-2-[(pyridin-4-ylmethyl)-amino]-nicotinamide] was tested, and the IC50 was < 50 nM. `CC(=O)N1CC(C)(C)c2ccc(NC(=O)c3cccnc3Nc3ccc4c(c3)OCCO4)cc21` [Example 991, N-(1-Acetyl-3,3-dimethyl-2,3-dihydro-1H-indol-6-yl)-2-(2,3-dihydro-benzo[1,4]dioxin-6-ylamino)-nicotinamide] was tested, and the IC50 was < 50 nM. With `CN(C)CC(=O)Nc1cc(NC(=O)c2cccnc2NCc2ccnc3ccccc23)ccc1C(C)(C)C` [Example 1072, N-(4-(1,1-dimethylethyl)-3-((N,N-dimethylglycyl)amino)phenyl)-2-((4-quinolinylmethyl)amino)-3-pyridinecarboxamide] the IC50 was < 50 nM. `CNc1cc(CNc2ncccc2C(=O)Nc2ccc3c(c2)CNCC3(C)C)ccn1` [Example 1130, N-(4,4-Dimethyl-1,2,3,4-tetrahydro-isoquinolin-7-yl)-2-[(2-methylamino-pyridin-4-ylmethyl)-amino]-nicotinamide] was tested, and the IC50 was < 50 nM. In the case of `CS(=O)(=O)NCCOc1cc(NC(=O)c2cccnc2NCc2ccncc2)ccc1C(F)(F)F` [Example 1032, N-(3-((2-((Methylsulfonyl)amino)ethyl)oxy)-4-(trifluoromethyl)phenyl)-2-((4-pyridinylmethyl)amino)-3-pyridinecarboxamide], the IC50 is reported as < 50 nM. In the case of `O=C(Nc1ccc(C(F)(F)F)c(OCCN2CCCC2)c1)c1cccnc1NCc1ccncc1` [Example 982, 2-[(Pyridin-4-ylmethyl)-amino]-N-[3-(2-pyrrolidin-1-yl-ethoxy)-4-trifluoromethyl-phenyl]-nicotinamide], the IC50 is reported as < 50 nM. In the case of `CC1(C)CN(C[C@@H]2CCCN2)c2cc(NC(=O)c3cccnc3NCc3ccncc3)ccc21` [Example 1176, N-(3,3-Dimethyl-1-pyrrolidin-(2S)-ylmethyl-2,3-dihydro-1H-indol-6-yl)-2-[(pyridin-4-ylmethyl)-amino]-nicotinamide], the IC50 is reported as < 50 nM. For `CC(C)(C)c1ccc(NC(=O)c2cccnc2NCc2ccnc(OCCCN3CCOCC3)c2)cc1` [Example 904, N-(4-tert-Butyl-phenyl)-2-{[2-(3-morpholin-4-yl-propoxy)-pyridin-4-ylmethyl]-amino}-nicotinamide], the IC50 was < 50 nM. With `CC1(C)CNCc2cc(NC(=O)c3cccnc3NCc3ccc4ncccc4c3)ccc21` [Example 1061, N-(4,4-dimethyl-1,2,3,4-tetrahydro-7-isoquinolinyl)-2-((6-quinolinylmethyl)amino)-3-pyridinecarboxamide] the IC50 was < 50 nM. In the case of `CC1(C)Oc2ccc(NC(=O)c3cccnc3NCc3ccncc3)cc2NC1=O` [Example 944, N-(2,2-Dimethyl-3-oxo-3,4-dihydro-2H-benzo[1,4]oxazin-6-yl)-2-[(pyridin-4-ylmethyl)-amino]-nicotinamide], the IC50 is reported as < 50 nM. With `COc1nccc(CNc2ncccc2C(=O)Nc2ccc(C(C)(C)C)c(NC(=O)CN(C)C)c2)n1` [Example 1074, N-(4-(1,1-dimethylethyl)-3-((N,N-dimethylglycyl)amino)phenyl)-2-(((2-(methyloxy)-4-pyrimidinyl)methyl)amino)-3-pyridinecarboxamide] the IC50 was < 50 nM. In the case of `O=C(Nc1ccc(Cl)cc1)c1cccnc1NCc1ccc2ncccc2c1` [Example 21, N-(4-Chlorophenyl){2-[(6-quinolylmethyl)amino](3-pyridyl)}carboxamide], the IC50 is reported as < 50 nM. In the case of `COc1nccc(CNc2ncccc2C(=O)Nc2ccc3c(c2)CNCC3(C)C)n1` [Example 1132, N-(4,4-Dimethyl-1,2,3,4-tetrahydro-isoquinolin-7-yl)-2-[(2-methoxy-pyrimidin-4-ylmethyl)-amino]-nicotinamide], the IC50 is reported as < 50 nM. For `CCc1cc(CNc2ncccc2C(=O)Nc2ccc(C(C)(C)C)cc2)ccn1` [Example 873, N-(4-tert-Butyl-phenyl)-2-{[2-ethylpyridin-4-ylmethyl]-amino}-nicotinamide], the IC50 was < 50 nM. `CC(C)(C)OC(=O)N1CCC[C@@H]1COc1cc(NC(=O)c2cccnc2NCc2ccncc2)cc(C(F)(F)F)c1` [Example 916, (R) N-[3-(1-Boc-pyrrolidin-2-ylmethoxy)-5-trifluoromethyl-phenyl]-2-[(pyridin-4-ylmethyl)-amino]-nicotinamide] was tested, and the IC50 was < 50 nM. With `O=C(Nc1ccc(Cl)c(Cl)c1)c1cccnc1NCc1ccncc1` [Example 4, N-(3,4-Dichlorophenyl){2-[(4-pyridylmethyl)amino](3-pyridyl)}-carboxamide] the IC50 was < 50 nM. For `CC(C)c1ccc(NC(=O)c2cccnc2NCc2ccncc2)cc1` [Example 25, N-(4-Isopropylphenyl){2-[(4-pyridylmethyl)amino](3-pyridyl)}carboxamide], the IC50 was < 50 nM. For `CNc1cc(CNc2ncccc2C(=O)Nc2ccc3c(c2)NCC3(C)C)ccn1` [Example 1104, N-(3,3-Dimethyl-2,3-dihydro-1H-indol-6-yl)-2-[(2-methylamino-pyridin-4-ylmethyl)-amino]-nicotinamide], the IC50 was < 50 nM. For `CNc1nccc(CNc2ncccc2C(=O)Nc2cc(OC[C@@H]3CCCN3C)cc(C(F)(F)F)c2)n1` [Example 1144, 2-[(2-Methylamino-pyrimidin-4-ylmethyl)-amino]-N-[3-(1-methyl-pyrrolidin-2-ylmethoxy)-5-trifluoromethyl-phenyl]-nicotinamide], the IC50 was < 50 nM. For `O=C(Nc1ccc(Cl)cc1)c1cccnc1NCc1ccnc2ccccc12` [Example 20, N-(4-Chlorophenyl){2-[(4-quinolylmethyl)amino](3-pyridyl)}carboxamide], the IC50 was < 50 nM. With `CNc1cc(CNc2ncccc2C(=O)Nc2cc(OC[C@@H]3CCCO3)cc(C(F)(F)F)c2)ccn1` [Example 1080, 2-(((2-(methylamino)-4-pyridinyl)methyl)amino)-N-(3-(((2S)-tetrahydro-2-furanylmethyl)oxy)-5-(trifluoromethyl)phenyl)-3-pyridinecarboxamide] the IC50 was < 50 nM. For `CN1CCC(CCCOc2cc(CNc3ncccc3C(=O)Nc3ccc(C(F)(F)F)cc3)ccn2)CC1` [Example 922, 2-({2-[3-(1-Methyl-piperidin-4-yl)-propoxy]-pyridin-4-ylmethyl}-amino)-N-(4-trifluoromethyl-phenyl)-nicotinamide], the IC50 was < 50 nM. In the case of `O=C(Nc1cc(OCC2CNC2)cc(C(F)(F)F)c1)c1cccnc1NCc1ccncc1` [Example 977, N-[3-(azetidin-3-ylmethoxy)-5-trifluoromethyl-phenyl]-2-[(pyridin-4-ylmethyl)-amino]-nicotinamide], the IC50 is reported as < 50 nM.
